From patent US7566724B2, “Glycine derivative and use thereof” (Toray Industries, Inc., priority 2004, dated 2009)
Structures can show the parent of a compound that is named as a salt.

Assays:
[1] = system: DSS-induced colitis; assay: Dextran Sulfate Sodium (DSS)-induced Colitis Model of Mice (1); format: in vivo, Female BALB/c mice; details: 3 w/v % DSS for 8 days, scored at day 8
Procedure: Female BALB/c mice (Charles River, Japan) of 7 to 9 weeks old were allowed to freely drink 3 w/v % dextran sulfate sodium (DSS) for 8 days to induce colitis. The non-induced (background) group was allowed to freely drink sterilized distilled water. The compound described in Example 28 was orally administered to the mice at a dose of 5 mg/kg, and the compounds described in Example 4, Example 22 and Example 78 were orally administered to the mice at a dose of 15 mg/kg every day. At day 8 from the beginning of the drinking, stool consistency was scored (0: normal stool, 2: loose stool, 4: diarrhea) by using the method described by Murthy et al (see, for example, Dig Dis Sci., 38, 1722 (1993)).

[2] = Pharmacokinetic Evaluation in Rats; format: in vivo; details: rat, male SD rats, administered orally or intravenously, plasma up to 8 hours, LC/MS/MS; for bioavailability: oral, read-out: BA(%) (bioavailability); for clearance: read-out: CLtot (total clearance) (converted)
Procedure: Each compound was dissolved at a concentration of 0.5 mg/ml in PBS or in PBS containing 10% PEG. The compound was administered orally or intravenously to male SD rats (7 to 9 weeks old). Blood was collected from the tail vein at time points up to 8 hours after the administration, and blood plasma was collected by centrifugation from each obtained blood. The blood plasma was pretreated by using the solid-phase extraction method, and the concentration of the compound was analyzed with LC/MS/MS (ESI negative mode).
As the Comparative Compound, 2-[4-((3,5-dichlorobenzensulfonylamino)methyl)benzoylamino]-5-(4-(methyl-pyrimidin-2-ylamino)phenyl)pento-4-ene acid (XXI) described in WO 99/26923 was used.
[“BA” in Table 17 means bioavailability, and “CLtot” means total clearance.]

[3] = system: Jurkat cells; assay: Measurement of Inhibitory Effect on Leukocyte Functions (adhesion of Jurkat cells to ligand-expressing cells or ligand-immobilized plate); format: cell-based; details: Homo sapiens, 0.5 h; fluorescently labelled Jurkat cells, ligand-expressing cells or ligand-immobilized plate, 37° C. 30 minutes; read-out: IC50 (adhesion of Jurkat cells)
Procedure: Jurkat cells which are a cell line originated from human acute T cell lymphoma were allowed to react with BCECF-AM at 37° C. for 20 minutes to fluorescently label the cells. The fluorescently labelled Jurkat cells were allowed to react with ligand-expressing cells or with a ligand-immobilized plate at 37° C. for 30 minutes. After removing non-adherent cells by washing, 1% NP40 was added to lyse the adherent cells, and fluorescence intensity was measured with Cytoflow 2300 (Millipore). From the obtained fluorescence intensity, the number of adherent cells was calculated. Each test compound was reacted with the Jurkat cells before the beginning of the adhesion reaction. In Table 18, the IC50 of each compound is shown.

[4] = system: leukotriene B4 production by neutrophils; assay: Measurement of Inhibitory Effect on Inflammatory Mediator Production by Leukocytes (ionomycin-induced leukotriene B4 in neutrophils); format: cell-based; details: 0.5 h, human neutrophil suspension, 37° C. 30 minutes, EIA
Procedure: A mixture of human peripheral blood and physiological saline containing 3% dextran was left to stand for 30 minutes and then the upper layer was recovered. The upper layer was overlaid on Histopaque 1077 (SIGMA), and the resultant was centrifuged at 1400 rpm for 30 minutes. The supernatant was removed by aspiration and a buffer was added to the precipitate to prepare a neutrophil suspension (4×10^5 cells/mL). To the neutrophil suspension, ionomycin was added and the mixture was incubated at 37° C. for 30 minutes, followed by quantification of leukotriene B4 by EIA (Amersham, Biotrak EIA system). Each test compound was added to the neutrophil suspension before adding ionomycin. In Table 19, the IC50 of each compound is shown.

[5] = system: DSS-induced colitis; assay: Dextran Sulfate Sodium (DSS)-induced Colitis Model of mice (2); format: in vivo, Female BALB/c mice; details: orally 5 mg/kg every day from Day 27 to Day 31; DSS 5 to 7 days then water 5 days, repeated 3 times
Procedure: Female BALB/c mice (Charles River, Japan) of 7 to 9 weeks old were allowed to freely drink 3 w/v % dextran sulfate sodium (DSS) for 5 to 7 days, and then to freely drink sterilized distilled water for 5 days. The procedure was repeated 3 times to induce colitis. The non-induced (background) group was allowed to freely drink sterilized distilled water. The compounds described in Examples 81 and 84 were orally administered to the mice at a dose of 5 mg/kg, respectively, every day from Day 27 to Day 31 after from the beginning of the drinking, and stool consistency was scored (0: normal stool, 2: loose stool, 4: diarrhea) by using the method described by Murthy et al (see, for example, Dig Dis Sci., 38, 1722 (1993).

bioavailability [2] | clearance [2] | IC50 [3] | IC50 [4] | Compound | rate of amelioration (stool consistency score) ([1]; orally 15 mg/kg every day) | rate of amelioration (stool consistency score) ([1]; orally 5 mg/kg every day) | rate of amelioration (stool consistency score) [5]
55% | 10.1 mL/min/kg | 247 nM | 52300 nM | COC1(c2ccc(/C=C/CC(NC(=O)c3c(Cl)cccc3Cl)C(=O)O)cc2)CCOCC1 (centres unmarked) [Example 4, (E)-2-(2,6-Dichlorobenzamido)-5-[4-(4-methoxytetrahydropyran-4-yl)-phenyl]pent-4-enoic acid] | 44% | – | –
68.5% | 19.8 mL/min/kg | – | 5630 nM | CCOC1(c2ccc(/C=C/CC(NC(=O)c3c(Cl)cccc3Cl)C(=O)O)cc2)CCOCC1 (centres unmarked) [Example 6, (E)-2-(2,6-Dichlorobenzamido)-5-[4-(4-ethoxytetrahydropyran-4-yl)-phenyl]pent-4-enoic acid] | – | – | –
61.7% | 5.1 mL/min/kg | 160 nM | 176000 nM | CN(c1ccc(/C=C/CC(NC(=O)c2c(Cl)cccc2Cl)C(=O)O)cc1)c1ncccn1 (centres unmarked) [Example 22, (E)-2-(2,6-Dichlorobenzamido)-5-[4-(methyl-pyrimidin-2-ylamino)phenyl]pent-4-enoic acid] | 67% | – | –
80.6% | 14.9 mL/min/kg | 56 nM | 7400 nM | CC(C)N(c1ccc(/C=C/CC(NC(=O)c2c(Cl)cccc2Cl)C(=O)O)cc1)c1ncccn1 (centres unmarked) [Example 28, (E)-2-(2,6-Dichlorobenzamido)-5-[4-(isopropyl-pyrimidin-2-ylamino)phenyl]pent-4-enoic acid] | – | 71% | –
– | – | – | 16300 nM | O=C(NC(C/C=C/c1ccc(N(Cc2ccccc2)c2ncccn2)cc1)C(=O)O)c1c(Cl)cccc1Cl (centres unmarked) [Example 33, (E)-5-[4-(Benzyl-pyrimidin-2-yl-amino)-phenyl]-2-(2,6-dichlorobenzamido)-pent-4-enoic acid sodium salt] | – | – | –
– | – | 280 nM | 30000 nM | Cc1cccc(Cl)c1C(=O)NC(C/C=C/c1ccc(N(C)c2ncccn2)cc1)C(=O)O (centres unmarked) [Example 67, (E)-2-(2-Chloro-6-methylbenzamido)-5-[4-(methyl-pyrimidin-2-ylamino)phenyl]pent-4-enoic acid] | – | – | –
– | – | 54 nM | – | COC1(c2ccc(/C=C/C[C@H](NC(=O)c3c(Cl)cccc3Cl)C(=O)[O-])cc2)CCOCC1.[Na+] [Example 78, (S,E)-2-(2,6-Dichlorobenzamido)-5-[4-(4-methoxytetrahydropyran-4-yl)-phenyl]pent-4-enoic acid sodium salt] | 40% | – | –
52.1% | 17 mL/min/kg | 82 nM | – | CN(c1ccc(/C=C/C[C@H](NC(=O)c2c(Cl)cccc2Cl)C(=O)[O-])cc1)c1ncccn1.[Na+] [Example 81, (S,E)-2-(2,6-Dichlorobenzamido)-5-[4-(methyl-pyrimidin-2-ylamino)phenyl]pent-4-enoic acid sodium salt] | – | – | 68.8%
– | – | 30 nM | – | CC(C)N(c1ccc(/C=C/C[C@H](NC(=O)c2c(Cl)cccc2Cl)C(=O)[O-])cc1)c1ncccn1.[Na+] [Example 84, (S,E)-2-(2,6-Dichlorobenzamido)-5-[4-(isopropyl-pyrimidin-2-ylamino)phenyl]pent-4-enoic acid sodium salt] | – | – | 82.4%
